Data published in US10138292B2, “Cell culture medium” (BIOLAMINA AB, priority 2010, dated 2018).

Tests used:
Oct4 and Nanog mRNA = assay: Real-time quantitative RT-PCR of pluripotency markers (Example 1); assay type: cell-based, human; settings: after several passages
Description: Total RNA was isolated and cDNA was synthesized as described in Rodin et al., Nature Biotechnol., vol. 28, pp. 611-615 (2010). Real-time quantitative RT-PCR Taqman assays were performed using the Applied Biosystems 7300 Real-Time PCR System. All reactions were done in quadruplicate with predeveloped gene expression assay mix (Applied Biosystems) containing primers and a probe for the mRNA of interest. Additional reactions for each experiment included predeveloped gene expression assay mix for GAPDH, used to normalize the RNA input. All data were analyzed with 7300 System SDS Software version 1.4.

[1] = tested on: phosphorylated myosin light chain (P-MLC); assay: Western blot of phosphorylated myosin light chain; assay type: cell-based, human; settings: one and six hours after plating
Description: HS 181 cells were trypsinized into single cell suspension as described above. For inhibition experiments, the cells were kept in O3 medium with blocking antibodies or pathway inhibitors for 30 minutes and then 450K cells were plated on 35 mm dishes precoated with the appropriate matrix coating. For other experiments, same number of cells was plated directly after trypsinization. […] After two washings in ice-cold PBS, the plates with cells were snap frozen in liquid nitrogen and stored at −80° C. To prepare samples for western blots and ELISA, the plates were slowly thawed and kept on ice with 100-150 μl of lysis buffer (50 mM Tris-HCl, pH7.5, 150 mM NaCl, 0.5% deoxycholate, 0.5% SDS, 1% Triton X-100, 1% Igepal, Complete™ (Roche) and Phospho-Stop™ (Roche)) on top. Then, the cells were scraped, pipetted and sheared through a 27G ¾″ needle. After that, the cell pellets were clarified by centrifugation at 16,100 rcf for 15 minutes at 4° C. For western blots, 4-12% gradient gels were used for SDS electrophoresis and the proteins were transferred to PVDF membranes. The membrane was hybridized with the antibody of interest according to the manufacturer's instructions. Chemoluminescent HRP-substrate from Amersham Biosciences was used for visualization. For the densitometry analysis the films were scanned at 2,400 dpi and analyzed by the Chemilmager5500 program (1D-Multi Line densitometry mode). […]

Substance: LN-521: protein formed by joining α5, β2 and γ1 laminin chains; human recombinant, produced in HEK293 cells
- number of mRNA transcripts of Oct4 and Nanog compared with Matrigel (Oct4 and Nanog mRNA): higher numbers of transcripts
- phosphorylation of MLC compared with cells on Matrigel and LN-111 [1]: even higher
